Test results published in ChEMBL document CHEMBL1671627, “Increasing trends in antimicrobial resistance among clinically important anaerobes and Bacteroides fragilis isolates causing nosocomial infections: emerging resistance to carbapenems” (2008).
Values after ≈ are worked out from the molar mass of the structure shown.

Experiments:
Phocaeicola vulgatus [1] = experiment: Antibacterial activity against beta-lactamase producing Bacteroides vulgatus by CLSI agar dilution method; assay type: functional
Bacteroides uniformis [2] = experiment: Antibacterial activity against beta-lactamase producing Bacteroides uniformis by CLSI agar dilution method; assay type: functional
Bacteroides caccae [3] = experiment: Antibacterial activity against beta-lactamase producing Bacteroides caccae by CLSI agar dilution method; assay type: functional
Fusobacterium varium [4] = experiment: Antibacterial activity against Fusobacterium varium by CLSI agar dilution method; assay type: functional
Fusobacterium nucleatum [5] = experiment: Antibacterial activity against Fusobacterium nucleatum by CLSI agar dilution method; assay type: functional
Fusobacterium mortiferum [6] = experiment: Antibacterial activity against Fusobacterium mortiferum by CLSI agar dilution method; assay type: functional
[7] = tested on: Fusobacterium necrophorum; experiment: Antibacterial activity against Fusobacterium necrophorum by CLSI agar dilution method; assay type: functional
Prevotella buccae [8] = experiment: Antibacterial activity against Prevotella buccae by CLSI agar dilution method; assay type: functional; conditions: Segatella buccae
Prevotella bivia [9] = experiment: Antibacterial activity against Prevotella bivia by CLSI agar dilution method; assay type: functional
Prevotella intermedia [10] = experiment: Antibacterial activity against Prevotella intermedia by CLSI agar dilution method; assay type: functional
[11] = tested on: Prevotella melaninogenica; experiment: Antibacterial activity against Prevotella melaninogenica by CLSI agar dilution method; assay type: functional
Veillonella parvula = experiment: Antibacterial activity against Veillonella parvula by CLSI agar dilution method; assay type: functional
Clostridium perfringens = experiment: microbe, parasite or virus in culture; assay type: functional
[12] = tested on: Clostridium paraputrificum; experiment: Antibacterial activity against beta-lactamase producing Clostridium paraputrificum by CLSI agar dilution method; assay type: functional
Clostridium septicum = experiment: Antibacterial activity against beta-lactamase producing Clostridium septicum by CLSI agar dilution method; assay type: functional
Clostridium tertium = experiment: Antibacterial activity against beta-lactamase producing Clostridium tertium by CLSI agar dilution method; assay type: functional
Bacteroides fragilis [13] = experiment: Antibacterial activity against Bacteroides fragilis by CLSI agar dilution method; assay type: functional
[14] = tested on: Bacteroides thetaiotaomicron; experiment: Antibacterial activity against beta-lactamase producing Bacteroides thetaiotaomicron by CLSI agar dilution method; assay type: functional
[15] = tested on: Peptostreptococcus anaerobius; experiment: Antibacterial activity against beta-lactamase producing Peptostreptococcus anaerobius by CLSI agar dilution method; assay type: functional
Parvimonas micra = experiment: Antibacterial activity against beta-lactamase producing Micromonas micros by CLSI agar dilution method; assay type: functional
[16] = tested on: Peptoniphilus asaccharolyticus; experiment: Antibacterial activity against beta-lactamase producing Peptoniphilus asaccharolyticus by CLSI agar dilution method; assay type: functional
Finegoldia magna = experiment: Antibacterial activity against beta-lactamase producing Finegoldia magna by CLSI agar dilution method; assay type: functional
Bacteroides fragilis [17] = experiment: Antibacterial activity against Bacteroides fragilis assessed as susceptible isolates by CLSI agar dilution method; assay type: functional
Bacteroides fragilis [18] = experiment: Antibacterial activity against Bacteroides fragilis assessed as resistant isolates by CLSI agar dilution method; assay type: functional
[19] = tested on: Bacteroides thetaiotaomicron; experiment: Antibacterial activity against beta-lactamase producing Bacteroides thetaiotaomicron assessed as susceptible isolates by CLSI agar dilution method; assay type: functional
[20] = tested on: Bacteroides thetaiotaomicron; experiment: Antibacterial activity against beta-lactamase producing Bacteroides thetaiotaomicron assessed as resistant isolates by CLSI agar dilution method; assay type: functional
Phocaeicola vulgatus [21] = experiment: Antibacterial activity against beta-lactamase producing Bacteroides vulgatus assessed as susceptible isolates by CLSI agar dilution method; assay type: functional
Phocaeicola vulgatus [22] = experiment: Antibacterial activity against beta-lactamase producing Bacteroides vulgatus assessed as resistant isolates by CLSI agar dilution method; assay type: functional
Bacteroides uniformis [23] = experiment: Antibacterial activity against beta-lactamase producing Bacteroides uniformis assessed as susceptible isolates by CLSI agar dilution method; assay type: functional
Bacteroides uniformis [24] = experiment: Antibacterial activity against beta-lactamase producing Bacteroides uniformis assessed as resistant isolates by CLSI agar dilution method; assay type: functional
Bacteroides caccae [25] = experiment: Antibacterial activity against beta-lactamase producing Bacteroides caccae assessed as susceptible isolates by CLSI agar dilution method; assay type: functional
Bacteroides caccae [26] = experiment: Antibacterial activity against beta-lactamase producing Bacteroides caccae assessed as resistant isolates by CLSI agar dilution method; assay type: functional
Fusobacterium varium [27] = experiment: Antibacterial activity against Fusobacterium varium assessed as susceptible isolates by CLSI agar dilution method; assay type: functional
Fusobacterium nucleatum [28] = experiment: Antibacterial activity against Fusobacterium nucleatum assessed as susceptible isolates by CLSI agar dilution method; assay type: functional
Fusobacterium mortiferum [29] = experiment: Antibacterial activity against Fusobacterium mortiferum assessed as susceptible isolates by CLSI agar dilution method; assay type: functional
[30] = tested on: Fusobacterium necrophorum; experiment: Antibacterial activity against Fusobacterium necrophorum assessed as susceptible isolates by CLSI agar dilution method; assay type: functional
Fusobacterium varium [31] = experiment: Antibacterial activity against Fusobacterium varium assessed as resistant isolates by CLSI agar dilution method; assay type: functional
Fusobacterium nucleatum [32] = experiment: Antibacterial activity against Fusobacterium nucleatum assessed as resistant isolates by CLSI agar dilution method; assay type: functional
Fusobacterium mortiferum [33] = experiment: Antibacterial activity against Fusobacterium mortiferum assessed as resistant isolates by CLSI agar dilution method; assay type: functional
[34] = tested on: Fusobacterium necrophorum; experiment: Antibacterial activity against Fusobacterium necrophorum assessed as resistant isolates by CLSI agar dilution method; assay type: functional
Prevotella buccae [35] = experiment: Antibacterial activity against Prevotella buccae assessed as susceptible isolates by CLSI agar dilution method; assay type: functional, Segatella buccae
Prevotella bivia [36] = experiment: Antibacterial activity against Prevotella bivia assessed as susceptible isolates by CLSI agar dilution method; assay type: functional
Prevotella intermedia [37] = experiment: Antibacterial activity against Prevotella intermedia assessed as susceptible isolates by CLSI agar dilution method; assay type: functional
[38] = tested on: Prevotella melaninogenica; experiment: Antibacterial activity against Prevotella melaninogenica assessed as susceptible isolates by CLSI agar dilution method; assay type: functional
Prevotella buccae [39] = experiment: Antibacterial activity against Prevotella buccae assessed as resistant isolates by CLSI agar dilution method; assay type: functional, Segatella buccae
Prevotella bivia [40] = experiment: Antibacterial activity against Prevotella bivia assessed as resistant isolates by CLSI agar dilution method; assay type: functional
Prevotella intermedia [41] = experiment: Antibacterial activity against Prevotella intermedia assessed as resistant isolates by CLSI agar dilution method; assay type: functional
[42] = tested on: Prevotella melaninogenica; experiment: Antibacterial activity against Prevotella melaninogenica assessed as resistant isolates by CLSI agar dilution method; assay type: functional

`C[C@H]1COc2c(N3CCN(C)CC3)c(F)cc3c(=O)c(C(=O)O)cn1c23.C[C@H]1COc2c(N3CCN(C)CC3)c(F)cc3c(=O)c(C(=O)O)cn1c23.O` [LEVOFLOXACIN] was tested, and the MIC50 (Phocaeicola vulgatus [1]) was 2 µg/mL, the MIC90 (Phocaeicola vulgatus [1]) was 8 µg/mL and the MIC50 (Bacteroides uniformis [2]) was 2 µg/mL. The MIC90 (Bacteroides uniformis [2]) was 8 µg/mL, the MIC50 (Bacteroides caccae [3]) was 2 µg/mL and the MIC90 (Bacteroides caccae [3]) was 8 µg/mL. It also gave an MIC50 (Fusobacterium varium [4]) of 2 µg/mL, an MIC90 (Fusobacterium varium [4]) of 4 µg/mL and an MIC50 (Fusobacterium nucleatum [5]) of 2 µg/mL. The MIC90 (Fusobacterium nucleatum [5]) was 4 µg/mL, the MIC50 (Fusobacterium mortiferum [6]) was 2 µg/mL and the MIC90 (Fusobacterium mortiferum [6]) was 4 µg/mL. It also gave an MIC50 [7] of 2 µg/mL, an MIC90 [7] of 4 µg/mL and an MIC50 (Prevotella buccae [8]) of 1 µg/mL. The MIC90 (Prevotella buccae [8]) was 16 µg/mL, the MIC50 (Prevotella bivia [9]) was 1 µg/mL and the MIC90 (Prevotella bivia [9]) was 16 µg/mL. The MIC50 (Prevotella intermedia [10]) was 1 µg/mL, the MIC90 (Prevotella intermedia [10]) was 16 µg/mL and the MIC50 [11] was 1 µg/mL. For the same compound, the MIC90 [11] was 16 µg/mL, the MIC (Veillonella parvula) was 0.06 µg/mL and the MIC90 (Clostridium perfringens) was 4 µg/mL. It also gave an MIC50 [12] of 0.5 µg/mL, an MIC90 [12] of 4 µg/mL and an MIC50 (Clostridium septicum) of 0.5 µg/mL. It also gave an MIC90 (Clostridium septicum) of 4 µg/mL, an MIC50 (Clostridium tertium) of 0.5 µg/mL and an MIC90 (Clostridium tertium) of 4 µg/mL. It also gave an MIC50 (Bacteroides fragilis [13]) of 2 µg/mL, an MIC90 (Bacteroides fragilis [13]) of 8 µg/mL and an MIC50 [14] of 4 µg/mL. The MIC90 [14] was 8 µg/mL, the MIC50 [15] was 0.5 µg/mL and the MIC90 [15] was 32 µg/mL. For the same compound, the MIC50 (Parvimonas micra) was 0.5 µg/mL, the MIC90 (Parvimonas micra) was 32 µg/mL and the MIC50 [16] was 0.5 µg/mL. It also gave an MIC90 [16] of 32 µg/mL, an MIC50 (Finegoldia magna) of 0.5 µg/mL and an MIC90 (Finegoldia magna) of 32 µg/mL.

Compound `CC1(C)S[C@@H]2[C@H](NC(=O)Cc3ccccc3)C(=O)N2[C@H]1C(=O)O` [PENICILLIN G] has an Activity (Bacteroides fragilis [17]) of 0%, an Activity (Bacteroides fragilis [18]) of 100% and an Activity [19] of 0%. For the same compound, the Activity [20] was 100%, the MIC50 (Phocaeicola vulgatus [1]) was > 128 µg/mL and the MIC90 (Phocaeicola vulgatus [1]) was > 128 µg/mL. The Activity (Phocaeicola vulgatus [21]) was 0%, the Activity (Phocaeicola vulgatus [22]) was 100% and the MIC50 (Bacteroides uniformis [2]) was > 128 µg/mL. For the same compound, the MIC90 (Bacteroides uniformis [2]) was > 128 µg/mL, the Activity (Bacteroides uniformis [23]) was 0% and the Activity (Bacteroides uniformis [24]) was 100%. The MIC50 (Bacteroides caccae [3]) was > 128 µg/mL, the MIC90 (Bacteroides caccae [3]) was > 128 µg/mL and the Activity (Bacteroides caccae [25]) was 0%. For the same compound, the Activity (Bacteroides caccae [26]) was 100%, the MIC50 (Fusobacterium varium [4]) was 0.25 µg/mL (≈ 0.748 µM) and the MIC90 (Fusobacterium varium [4]) was 1 µg/mL (≈ 2.99 µM). The MIC50 (Fusobacterium nucleatum [5]) was 0.25 µg/mL (≈ 0.748 µM), the MIC90 (Fusobacterium nucleatum [5]) was 1 µg/mL (≈ 2.99 µM) and the MIC50 (Fusobacterium mortiferum [6]) was 0.25 µg/mL (≈ 0.748 µM). It also gave an MIC90 (Fusobacterium mortiferum [6]) of 1 µg/mL (≈ 2.99 µM), an MIC50 [7] of 0.25 µg/mL (≈ 0.748 µM) and an MIC90 [7] of 1 µg/mL (≈ 2.99 µM). It also gave an Activity (Fusobacterium varium [27]) of 85%, an Activity (Fusobacterium nucleatum [28]) of 85% and an Activity (Fusobacterium mortiferum [29]) of 85%. For the same compound, the Activity [30] was 85%, the Activity (Fusobacterium varium [31]) was 11% and the Activity (Fusobacterium nucleatum [32]) was 11%. It also gave an Activity (Fusobacterium mortiferum [33]) of 11%, an Activity [34] of 11% and an MIC50 (Prevotella buccae [8]) of 16 µg/mL (≈ 47.8 µM). For the same compound, the MIC90 (Prevotella buccae [8]) was 64 µg/mL (≈ 191 µM), the MIC50 (Prevotella bivia [9]) was 16 µg/mL (≈ 47.8 µM) and the MIC90 (Prevotella bivia [9]) was 64 µg/mL (≈ 191 µM). The MIC50 (Prevotella intermedia [10]) was 16 µg/mL (≈ 47.8 µM), the MIC90 (Prevotella intermedia [10]) was 64 µg/mL (≈ 191 µM) and the MIC50 [11] was 16 µg/mL (≈ 47.8 µM). For the same compound, the MIC90 [11] was 64 µg/mL (≈ 191 µM), the Activity (Prevotella buccae [35]) was 6% and the Activity (Prevotella bivia [36]) was 6%. For the same compound, the Activity (Prevotella intermedia [37]) was 6%, the Activity [38] was 6% and the Activity (Prevotella buccae [39]) was 95%. The Activity (Prevotella bivia [40]) was 95%, the Activity (Prevotella intermedia [41]) was 95% and the Activity [42] was 95%. It also gave an MIC (Veillonella parvula) of 0.06 µg/mL (≈ 0.179 µM), an MIC50 (Clostridium perfringens) of 0.25 µg/mL (≈ 0.748 µM) and an MIC90 (Clostridium perfringens) of 4 µg/mL (≈ 12 µM). It also gave an MIC50 [12] of 0.25 µg/mL (≈ 0.748 µM), an MIC90 [12] of 4 µg/mL (≈ 12 µM) and an MIC50 (Clostridium septicum) of 0.25 µg/mL (≈ 0.748 µM). It also gave an MIC90 (Clostridium septicum) of 4 µg/mL (≈ 12 µM), an MIC50 (Clostridium tertium) of 0.25 µg/mL (≈ 0.748 µM) and an MIC90 (Clostridium tertium) of 4 µg/mL (≈ 12 µM). For the same compound, the MIC50 (Bacteroides fragilis [13]) was 16 µg/mL (≈ 47.8 µM), the MIC90 (Bacteroides fragilis [13]) was > 128 µg/mL and the MIC50 [14] was 16 µg/mL (≈ 47.8 µM). The MIC90 [14] was > 128 µg/mL, the MIC [15] was 0.03 µg/mL (≈ 0.0897 µM) and the MIC50 [15] was 0.03 µg/mL (≈ 0.0897 µM). It also gave an MIC90 [15] of 1 µg/mL (≈ 2.99 µM), an MIC (Parvimonas micra) of 0.03 µg/mL (≈ 0.0897 µM) and an MIC50 (Parvimonas micra) of 0.03 µg/mL (≈ 0.0897 µM). It also gave an MIC90 (Parvimonas micra) of 1 µg/mL (≈ 2.99 µM), an MIC [16] of 0.03 µg/mL (≈ 0.0897 µM) and an MIC50 [16] of 0.03 µg/mL (≈ 0.0897 µM). It also gave an MIC90 [16] of 1 µg/mL (≈ 2.99 µM), an MIC (Finegoldia magna) of 0.03 µg/mL (≈ 0.0897 µM) and an MIC50 (Finegoldia magna) of 0.03 µg/mL (≈ 0.0897 µM). For the same compound, the MIC90 (Finegoldia magna) was 1 µg/mL (≈ 2.99 µM).
